Measurements from US20240197871A1, “COMBINATION OF A CAR T CELL THERAPY AND AN IMMUNOMODULATORY COMPOUND FOR TREATMENT OF LYMPHOMA” (Juno Therapeutics, Inc., priority 2021, published 2024).

Key:
Assay type in all cases: cell-based
[1] = molecular target: T1, Ikaros (Homo sapiens, UniProt Q13422+Q96SW2); assay: Ikaros levels in anti-CD19 CAR T cells after 24-hour or six-day exposure
T1 construct: analyzed by flow cytometry to assess intracellular levels of Ikaros and Aiolos in CAR+ T cells; endogenous in cells; host or cells: primary human CD4+ and CD8+ T cells from healthy donors, lentivirally transduced with an anti-CD19 CAR
T1 sequence (Q13422 whole entry): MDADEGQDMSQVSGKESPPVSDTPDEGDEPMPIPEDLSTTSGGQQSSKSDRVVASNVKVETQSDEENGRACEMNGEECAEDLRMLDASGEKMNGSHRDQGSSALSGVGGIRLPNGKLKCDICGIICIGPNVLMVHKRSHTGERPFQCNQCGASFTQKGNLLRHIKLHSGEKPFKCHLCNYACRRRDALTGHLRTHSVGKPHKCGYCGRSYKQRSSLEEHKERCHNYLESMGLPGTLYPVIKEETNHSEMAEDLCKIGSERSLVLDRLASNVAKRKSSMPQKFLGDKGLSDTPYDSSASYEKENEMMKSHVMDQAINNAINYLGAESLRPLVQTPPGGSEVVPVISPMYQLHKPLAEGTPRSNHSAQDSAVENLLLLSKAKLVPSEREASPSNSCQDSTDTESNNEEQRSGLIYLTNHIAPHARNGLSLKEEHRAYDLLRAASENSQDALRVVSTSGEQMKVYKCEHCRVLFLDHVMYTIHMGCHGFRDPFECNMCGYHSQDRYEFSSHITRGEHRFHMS
T1 sequence (Q96SW2 whole entry): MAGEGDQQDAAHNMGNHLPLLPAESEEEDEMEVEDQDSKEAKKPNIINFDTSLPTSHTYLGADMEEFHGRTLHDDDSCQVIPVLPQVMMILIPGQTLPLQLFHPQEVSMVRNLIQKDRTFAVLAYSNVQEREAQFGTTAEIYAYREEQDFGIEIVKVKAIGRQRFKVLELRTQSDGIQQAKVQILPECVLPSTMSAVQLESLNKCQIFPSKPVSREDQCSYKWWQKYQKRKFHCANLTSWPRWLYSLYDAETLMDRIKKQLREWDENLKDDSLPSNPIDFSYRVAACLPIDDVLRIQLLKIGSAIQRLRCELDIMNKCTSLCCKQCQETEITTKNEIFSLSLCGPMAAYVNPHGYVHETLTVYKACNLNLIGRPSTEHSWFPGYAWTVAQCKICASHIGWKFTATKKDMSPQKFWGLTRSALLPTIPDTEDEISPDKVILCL
T1 sequence (Q16531 whole entry partner): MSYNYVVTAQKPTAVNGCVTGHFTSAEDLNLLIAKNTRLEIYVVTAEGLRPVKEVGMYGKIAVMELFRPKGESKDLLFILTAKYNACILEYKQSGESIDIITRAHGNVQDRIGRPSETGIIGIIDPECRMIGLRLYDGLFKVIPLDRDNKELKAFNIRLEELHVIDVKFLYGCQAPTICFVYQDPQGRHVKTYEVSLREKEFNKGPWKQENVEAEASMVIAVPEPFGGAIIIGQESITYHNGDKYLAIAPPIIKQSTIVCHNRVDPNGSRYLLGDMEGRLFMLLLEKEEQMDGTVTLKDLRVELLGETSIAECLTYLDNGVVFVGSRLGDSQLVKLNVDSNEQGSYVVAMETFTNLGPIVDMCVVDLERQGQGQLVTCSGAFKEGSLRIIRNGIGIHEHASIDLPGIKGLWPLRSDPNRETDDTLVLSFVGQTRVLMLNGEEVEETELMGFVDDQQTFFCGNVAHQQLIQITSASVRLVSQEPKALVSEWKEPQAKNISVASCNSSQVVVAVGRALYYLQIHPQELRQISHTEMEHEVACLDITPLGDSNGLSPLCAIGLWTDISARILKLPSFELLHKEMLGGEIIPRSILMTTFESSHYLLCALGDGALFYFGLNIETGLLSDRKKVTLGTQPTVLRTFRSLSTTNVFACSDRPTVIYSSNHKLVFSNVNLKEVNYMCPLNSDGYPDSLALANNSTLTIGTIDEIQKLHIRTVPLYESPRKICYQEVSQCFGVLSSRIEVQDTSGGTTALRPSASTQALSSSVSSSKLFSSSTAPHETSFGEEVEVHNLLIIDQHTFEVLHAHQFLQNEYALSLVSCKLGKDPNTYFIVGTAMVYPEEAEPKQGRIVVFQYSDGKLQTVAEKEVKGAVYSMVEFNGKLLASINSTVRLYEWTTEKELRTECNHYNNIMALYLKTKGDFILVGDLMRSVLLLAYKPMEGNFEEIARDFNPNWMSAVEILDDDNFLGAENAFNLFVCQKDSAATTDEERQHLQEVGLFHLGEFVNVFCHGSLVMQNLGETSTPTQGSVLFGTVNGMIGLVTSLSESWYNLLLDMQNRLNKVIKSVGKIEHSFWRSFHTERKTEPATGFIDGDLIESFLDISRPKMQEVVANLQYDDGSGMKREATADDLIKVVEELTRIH
Procedure: Due to the robust impact of Compound C on degradation of Ikaros and Aiolos, in which excessive or sustained treatment may impact CAR T cell function negatively and/or cause neutropenia secondary to neutrophil maturation arrest, an intermittent dosing schedule for treatment with Compound C was evaluated for its ability to effect deep, but transient degradation of Ikaros. To do so, the pharmacokinetics of a weekly (Q7D) 0.3-mg dose of Compound C were modelled. […] The effects of a weekly 0.3-mg dose of Compound C on neutrophil development were also modelled.
FIGS. 6B and 6C show Ikaros levels in anti-CD19 CAR T cells, generated as described in Example 1, following 24-hour (FIG. 6B) or six-day exposure (FIG. 6C) to Compound C.

[2] = molecular target: T1, Ikaros; assay: Ikaros expression in CAR T cells after six days of chronic stimulation (MFI); conditions: higher concentrations (e.g., 0.01 μM and 0.1 μM); compared with Compound 2
Procedure: To simulate conditions of chronic stimulation, anti-CD19 CAR-expressing T cells, produced as described in Example 1, were incubated with plate-bound CAR-specific anti-idiotypic antibody (see, e.g., WO2018/023100) and incubated at 37° C. for a period of six days. […] For instance, CAR T cells that were re-challenged with CD19+ tumor cells following the six-day stimulation had reduced IFNγ and IL-2 cytokine production (FIG. 3A) and reduced cytolytic function (FIG. 3B) compared to freshly thawed CAR T cells not subjected to the six-day stimulation.
The ability of Compound C to block or reduce this CAR T cell hypofunctionality following chronic stimulation was assessed. To do so, engineered CAR T cells were concurrently treated with Compound C, Compound 2, or a vehicle control during the six-day stimulation. Stimulated CAR T cells were then harvested, washed twice in media, and re-challenged with Granta-519 lymphoma tumor spheroids (that had been transduced with IncuCyte NucLight Red) in the absence of Compound C, after which cytolytic activity was assessed by loss of red fluorescence over time and averaged measurement of tumor spheroid size at various times following co-culture with CAR-T cells. Cytokine production, Ikaros expression, and gene expression of the CAR T Cells also were assessed. […]

[3] = test system: RL CD19+ tumor cells; assay: Cytolytic function: co-culture of anti-CD19 CAR T cells with RL CD19+ tumor cells; conditions: E:T 1:1
Procedure: To do so, CAR T cells were plated on ploy-D-lysine plates. CD19+ tumor cells transduced with IncuCyte® NucLight Red (Essen BioScience Inc.) were then added to the CAR T cells in addition to Compound C or vehicle control. Tumor cell number was measured over multiple days.
Treatment with CAR T cells in combination with either immunomodulatory compound led to lower tumor cell numbers than did CAR T cells alone or the compounds alone.

[4] = test system: Raji lymphoma tumor spheroids; assay: Simulated intermittent dosing during chronic stimulation, re-challenge with tumor spheroids; conditions: for cytolytic activity of chronically stimulated CAR T cells over four-day re-challenge: P<0.0001
Procedure: The effects of an intermittent Compound C dosing schedule on CAR T cells was assessed.
Anti-CD19 CAR-expressing T cells, produced as described in Example 1, were chronically stimulated as described in Example 3 in the presence of Compound C. During chronic stimulation, Compound C was present at (i) 50 nM for one day and 1 nM for the remaining five days, (ii) 25 nM for one day and 0.5 nM for the remaining five days, (iii) 10 nM for one day and absent for the remaining five days, or (iv) 1 nM for all six days. Stimulated CAR T cells were then re-challenged with Raji lymphoma tumor spheroids in the absence of Compound C, after which cytolytic activity was assessed.
Similar results are shown in FIG. 7B for a separate experiment in which CAR T cells were chronically stimulated for 7 days in the presence or absence of Compound C. In this experiment, Compound C was present at (i) 50 nM for one day and 1 nM for the remaining six days of stimulation, (ii) 25 nM for one day and 0.5 nM for the remaining six days of stimulation, (iii) 10 nM for all seven days of stimulation, or (iv) 1 nM for all seven days of stimulation. Stimulated CAR T cells were then re-challenged with Raji lymphoma tumor spheroids in the absence of Compound C, after which cytolytic activity was assessed over a four-day period. […] The CAR T cells stimulated for seven days in the presence or absence of Compound C were also analyzed for phenotypic T cell memory markers using flow cytometry following chronic stimulation. […] CD27/CCR7 expression, which is a marker for less differentiated, naïve-like T cells, was highest in CAR-expressing CD8 T cells stimulated in the presence of Compound C at 50 nM for one day and 1 nM for the remaining six days of stimulation (* P<0.05).

- Ikaros levels in anti-CD19 CAR T cells ([1]; 24-hour exposure, dose levels as low as 0.01 μM): lead to Ikaros degradation
- Ikaros levels in anti-CD19 CAR T cells ([1]; six-day exposure to 0.001 μM): did not affect Ikaros levels
- Ikaros expression (MFI) after six days of chronic stimulation [2]: lowest
Structure (SMILES): O=C1CC[C@H](N2C(=O)c3cccc(NCc4ccc(CN5CC(N6CCOCC6)C5)cc4F)c3C2=O)C(=O)N1 [Compound C, (S)-2-(2,6-dioxopiperidin-3-yl)-4-((2-fluoro-4-((3-morpholinoazetidin-1-yl)methyl)benzyl)amino)isoindoline-1,3-dione]
- RL tumor cell number vs CAR T cells alone or compound alone ([3]; compound at 0.001 μM with anti-CD19 CAR T cells): lower
- RL tumor cell number vs CAR T cells alone or compound alone ([3]; compound at 0.01 μM with anti-CD19 CAR T cells): lower
- RL tumor cell number vs CAR T cells alone or compound alone ([3]; compound at 0.1 μM with anti-CD19 CAR T cells): lower
- cytolytic activity of chronically stimulated CAR T cells (tumor cell number during re-challenge) ([4]; 25 nM for one day and 0.5 nM for the remaining five days of stimulation): most increase in cytolytic activity
- cytolytic activity of chronically stimulated CAR T cells over four-day re-challenge ([4]; 25 nM for one day and 0.5 nM for the remaining six days of stimulation): improved cytolytic activity
- cytolytic activity of chronically stimulated CAR T cells (tumor cell number during re-challenge) ([4]; 50 nM for one day and 1 nM for the remaining five days of stimulation): most increase in cytolytic activity
- cytolytic activity of chronically stimulated CAR T cells over four-day re-challenge ([4]; 50 nM for one day and 1 nM for the remaining six days of stimulation): improved cytolytic activity
